Measurements published in the supplement of paper PMC10883282.

Assays:
MES-SA [1] = experiment: relative viability vs DMSO control (72 h) (fraction); higher = more viable cells
Method in brief: (§1)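 Percent growth from ATPLite readings, averaged over up to triplicate wells, was used as relative viability. Sarcoma cell lines were seeded into 384-well plates for 80–90% confluence, dosed after 24 h, and kept 72 h at 37 °C, 5% CO2. Data were rescaled to a range where 1 is full and 0 is none.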

HS729 [2] = experiment: as above
Method in brief: as §1

VA-ES-BJ [3] = experiment: as above
Method in brief: as §1

SK-LMS-1 [4] = experiment: as above
Method in brief: as §1

RD [5] = experiment: as above
Method in brief: as §1

MES-SA [6] = experiment: standardised AUC of viability dose-response curve (72 h) (fraction (0-1)); higher = less growth inhibition (more resistant)
Method in brief: (§2)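 Viability of sarcoma cell lines was read with ATPLite after 72 h of triplicate treatment in 384-well plates with 2.5 µl of compound from a compound-plate series of 10 mM to 0.0002 mM. Viability was scaled 1 (full) to 0 (none) and fitted with a four-parameter log-logistic model for each drug and cell line. The reported standardised area under the dose-response curve in log-dose space comes from a modified drexplorer computeAUC, where 1 is no response and 0 is full response.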

G401 = experiment: as above
Method in brief: as §2

HS729 [7] = experiment: as above
Method in brief: as §2

SK-ES-1 = experiment: as above
Method in brief: as §2

SW982 = experiment: as above
Method in brief: as §2

RD-ES = experiment: as above
Method in brief: as §2

A204 = experiment: as above
Method in brief: as §2

VA-ES-BJ [8] = experiment: as above
Method in brief: as §2

SYO-1 = experiment: as above
Method in brief: as §2

SK-LMS-1 [9] = experiment: as above
Method in brief: as §2

HT1080 = experiment: as above
Method in brief: as §2

SW1353 = experiment: as above
Method in brief: as §2

KHOS-NP = experiment: as above
Method in brief: as §2

SW684 = experiment: as above
Method in brief: as §2

KHOS-240S = experiment: as above
Method in brief: as §2

SW872 = experiment: as above
Method in brief: as §2

RD [10] = experiment: as above
Method in brief: as §2

COc1cc(CCc2cc(NC(=O)c3ccc(N4CC(C)NC(C)C4)cc3)n[nH]2)cc(OC)c1 (configuration not stated) [AZD-4547]
relative viability
Settings | HS729 [2] | MES-SA [1] | RD [5] | SK-LMS-1 [4] | VA-ES-BJ [3]
0.00017 µM | 1.02 | 0.886 | 1.03 | 0.9811 | 1.05
0.00051 µM | 0.918 | 0.888 | 1.08 | 0.953 | 1.01
0.00152 µM | 0.914 | 0.92 | 1.07 | 0.944 | 1.03
0.00457 µM | 0.901 | 0.921 | 1.07 | 0.993 | 1.02
0.01372 µM | 0.827 | 0.894 | 1.08 | 0.938 | 1.01
0.04115 µM | 0.83 | 0.89 | 1.1 | 0.991 | 0.975
0.1235 µM | 0.65 | 0.789 | 1.063 | 0.954 | 0.983
0.3704 µM | 0.627 | 0.708 | 1.08 | 0.9652 | 1.02
1.111 µM | 0.57 | 0.655 | 1.06 | 0.986 | 1.07
3.333 µM | 0.473 | 0.554 | 0.858 | 0.965 | 0.987
10 µM | 0.265 | 0.266 | 0.419 | 0.645 | 0.681

Settings | standardised AUC
A204 | 0.742
G401 | 0.729
HS729 [7] | 0.752
HT1080 | 0.965
KHOS-240S | 0.831
KHOS-NP | 0.947
MES-SA [6] | 0.857
RD [10] | 0.948
RD-ES | 0.903
SK-ES-1 | 0.869
SK-LMS-1 [9] | 0.988
SW684 | 0.965
SW872 | 0.934
SW982 | 0.91
SW1353 | 0.873
SYO-1 | 0.698
VA-ES-BJ [8] | 0.987

COc1cc(Nc2ncc(F)c(Nc3ccc4c(n3)N(COP(=O)(O)O)C(=O)C(C)(C)O4)n2)cc(OC)c1OC [Fostamatinib]
relative viability
Settings | HS729 [2] | MES-SA [1] | RD [5] | SK-LMS-1 [4] | VA-ES-BJ [3]
0.00017 µM | 0.913 | 0.904 | 1.09 | 1.06 | 1.05
0.00051 µM | 0.952 | 0.94 | 1.1 | 1.03 | 1.06
0.00152 µM | 0.938 | 0.932 | 1.11 | 1.05 | 1.06
0.00457 µM | 0.961 | 0.921 | 1.1 | 1.05 | 1.04
0.01372 µM | 0.982 | 0.943 | 1.11 | 1.03 | 1.04
0.04115 µM | 0.914 | 0.931 | 1.13 | 1.029 | 1.06
0.1235 µM | 0.845 | 0.853 | 1.07 | 0.897 | 1.01
0.3704 µM | 0.724 | 0.768 | 0.991 | 0.819 | 0.888
1.111 µM | 0.726 | 0.861 | 0.96 | 0.769 | 0.727
3.333 µM | 0.519 | 0.332 | 0.535 | 0.618 | 0.366
10 µM | 0.586 | 0.043 | 0.457 | 0.403 | 0.164

Cc1cccc(-c2nn3c(c2-c2ccnc4ccc(C(N)=O)cc24)CCC3)n1 [Galunisertib]
relative viability
Settings | HS729 [2] | MES-SA [1] | RD [5] | SK-LMS-1 [4] | VA-ES-BJ [3]
0.00017 µM | 0.993 | 0.925 | 1.06 | 1.04 | 1.04
0.00051 µM | 0.933 | 0.922 | 1.07 | 1 | 1
0.00152 µM | 0.948 | 0.916 | 1.079 | 1.01 | 1.03
0.00457 µM | 0.897 | 0.897 | 1.095 | 0.982 | 0.9974
0.01372 µM | 0.901 | 0.911 | 1.081 | 1.01 | 0.983
0.04115 µM | 0.892 | 0.91 | 1.09 | 0.982 | 0.986
0.1235 µM | 0.898 | 0.9002 | 1.071 | 1.01 | 1.01
0.3704 µM | 0.836 | 0.891 | 1.05 | 1 | 1.01
1.111 µM | 0.794 | 0.888 | 1.08 | 1 | 1.07
3.333 µM | 0.756 | 0.863 | 1.12 | 0.953 | 1.08
10 µM | 0.749 | 0.873 | 1.13 | 0.965 | 1.11
